Assays:
[1] = target: T1, human 5-HT1A receptor subtype (Homo sapiens, UniProt P08908); test: 5-HT1A receptor binding, [3H]8-OH-DPAT, CHO cell membranes; settings: for 5-HT1A, value given as %: concentration not given; for Ki: [3H]8-OH-DPAT 1.5 nM
T1 construct: expressed in transfected cells
T1 sequence (P08908 1-422): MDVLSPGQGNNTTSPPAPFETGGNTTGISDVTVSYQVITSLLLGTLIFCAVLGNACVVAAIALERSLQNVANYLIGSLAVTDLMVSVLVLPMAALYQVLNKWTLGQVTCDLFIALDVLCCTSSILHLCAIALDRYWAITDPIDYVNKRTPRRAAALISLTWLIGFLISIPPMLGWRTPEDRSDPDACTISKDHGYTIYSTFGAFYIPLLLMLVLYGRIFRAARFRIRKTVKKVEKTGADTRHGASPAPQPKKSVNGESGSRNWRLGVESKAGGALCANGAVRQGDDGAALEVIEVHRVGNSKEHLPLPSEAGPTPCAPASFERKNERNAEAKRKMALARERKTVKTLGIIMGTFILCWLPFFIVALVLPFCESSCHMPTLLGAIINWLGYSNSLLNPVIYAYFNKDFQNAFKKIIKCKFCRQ
Procedure: The PCR cloning of the human 5-HT1A receptor subtype from a human genomic library has been described previously Chanda et al., Mol. Pharmacol., 43:516 (1993). A stable Chinese hamster ovary cell line expressing the human 5-HT1A receptor subtype (5-HT1A.CH2O cells) was employed throughout this study. Cells were maintained in DMEM supplemented with 10% fetal calf serum, non-essential amino acids and penicillin/streptomycin.
Cells were grown to 95-100% confluency as a monolayer before membranes were harvested for binding studies. Cells were gently scraped from the culture plates, transferred to centrifuge tubes, and washed twice by centrifugation (2000 rpm for 10 min., 4° C.) in buffer (50 mM Tris; pH 7.5). The resulting pellets were aliquoted and placed at −80° C. On the day of assay, the cells were thawed on ice, and resuspended in buffer. Studies were conducted using [^3H]8-OH-DPAT as the radioligand. The binding assay was performed in 96 well microtiter plates in a final total volume of 250 μL of buffer. Competition experiments were performed by using 7 concentrations of unlabelled drug and a final ligand concentration of 1.5 nM. Non-specific binding was determined in the presence of 10 μM 5HT. Saturation analysis was conducted by using [^3H]8-OH-DPAT at concentaritions ranging from 0.3-30 nm Following a 30 minute incubation at room temperature, the reaction was terminated by the addition of ice cold buffer and rapid filtration using a M-96 Brandel Cell Harvester (Gaithersburg, Md.) through a GF/B filter presoaked for 30 minutes in 0.5% polyethylenenimine.

serotonin transporter = target: T2, serotonin transporter (Rattus norvegicus, UniProt P31652); test: serotonin transporter affinity, 3H-paroxetine binding, frontal cortical membranes; settings: for Ki: 3H-paroxetine 0.1 nM, read-out: ST (Ki, nM,)
T2 construct: frontal cortical membranes prepared from male Sprague-Dawley rats; from tissue; host or cells: rat frontal cortex membranes
T2 sequence (P31652 whole entry): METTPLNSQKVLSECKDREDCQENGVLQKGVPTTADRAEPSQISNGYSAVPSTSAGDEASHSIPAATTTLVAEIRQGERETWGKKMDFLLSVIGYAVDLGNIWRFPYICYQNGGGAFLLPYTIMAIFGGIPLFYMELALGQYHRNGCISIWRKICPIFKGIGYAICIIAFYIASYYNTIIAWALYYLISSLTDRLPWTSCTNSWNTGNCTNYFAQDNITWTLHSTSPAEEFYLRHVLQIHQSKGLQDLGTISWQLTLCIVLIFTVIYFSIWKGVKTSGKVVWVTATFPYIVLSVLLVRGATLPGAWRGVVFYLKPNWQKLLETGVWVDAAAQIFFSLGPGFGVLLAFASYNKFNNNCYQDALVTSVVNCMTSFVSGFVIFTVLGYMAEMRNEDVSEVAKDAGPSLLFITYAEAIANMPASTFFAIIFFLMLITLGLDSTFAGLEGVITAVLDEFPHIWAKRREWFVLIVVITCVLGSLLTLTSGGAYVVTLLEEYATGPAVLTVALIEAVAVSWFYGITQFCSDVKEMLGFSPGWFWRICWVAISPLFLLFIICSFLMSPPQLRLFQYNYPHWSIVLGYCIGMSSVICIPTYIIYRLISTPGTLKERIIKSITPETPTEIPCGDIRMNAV
Procedure: A protocol similar to that used by Cheetham et al., Neuropharmacol. […] Briefly, frontal cortical membranes prepared from male Sprague-Dawley rats were incubated with ^3H-paroxetine (0.1 nM) for 60 minutes at 25° C. […] All reactions are terminated by the addition of ice cold Tris buffer followed by rapid filtration using a Tom Tech filtration device to separate bound from free ^3H-paroxetine.

## Brc1ccc2[nH]cc([C@H]3CC[C@@H](N4CCN(c5cccc6[nH]ccc56)CC4)CC3)c2c1 [Example 5a, 5-Bromo-3-[cis-4-[4-(1H-indol-4-yl)-1-piperazinyl]cyclohexyl]-1H-indole]
[1]
  5-HT1A, value given as %: 0%

## Brc1ccc2[nH]cc([C@H]3CC[C@H](N4CCN(c5cccc6[nH]ccc56)CC4)CC3)c2c1 [Example 5b, 5-Bromo-3-[trans-4-[4-(1H-indol-4-yl)-1-piperazinyl]cyclohexyl]-1H-indole]
[1]
  5-HT1A, value given as %: 78.7%

## Cn1ccc2c(N3CCN([C@H]4CC[C@@H](c5cn(C)c6cc(F)ccc65)CC4)CC3)cccc21 [Example 11, 6-Fluoro-1-methyl-3-{cis-4-[4-(1-methyl-1H-indol-4-yl)-1-piperazinyl]cyclohexyl}-1H-indole]
[1]
  5-HT1A, value given as %: 0%

## CCn1cc([C@H]2CC[C@@H](N3CCN(c4cccc5[nH]ccc45)CC3)CC2)c2cc(C#N)ccc21 [Example 13a, 1-Ethyl-3-{(1,4-cis)-4-[4-(1H-indol-4-yl)-piperazin-1-yl]-cyclohexyl}-1H-indole-5-carbonitrile]
[1]
  Ki: 563 nM

## CCn1cc([C@H]2CC[C@H](N3CCN(c4cccc5[nH]ccc45)CC3)CC2)c2cc(C#N)ccc21 [Example 13b, 1-Ethyl-3-{(1,4-trans)-4-[4-(1H-indol-4-yl)-piperazin-1-yl]-cyclohexyl}-1H-indole-5-carbonitrile]
[1]
  Ki: 827 nM

## CCCn1cc([C@H]2CC[C@@H](N3CCN(c4cccc5[nH]ccc45)CC3)CC2)c2cc(C#N)ccc21 [Example 14a, 3-{(1,4-cis)-4-[4-(1H-Indol-4-yl)-piperazin-1-yl]-cyclohexyl}-1-propyl-1H-indole-5-carbonitrile]
[1]
  Ki: 820 nM

## CCCn1cc([C@H]2CC[C@H](N3CCN(c4cccc5[nH]ccc45)CC3)CC2)c2cc(C#N)ccc21 [Example 14b, 3-{(1,4-trans)-4-[4-(1H-indol-4-yl)-piperazin-1-yl]-cyclohexyl}-1-propyl-1H-indole-5-carbonitrile]
[1]
  5-HT1A, value given as %: 0%

## CC(C)n1cc([C@H]2CC[C@@H](N3CCN(c4cccc5[nH]ccc45)CC3)CC2)c2cc(C#N)ccc21 [Example 15a, 3-{(1,4-cis)-4-[4-(1H-indol-4-yl)-piperazin-1-yl]-cyclohexyl}-1-isopropyl-1H-indole-5-carbonitrile]
Serotonin transporter
  Ki: 28 nM

## CC(C)n1cc([C@H]2CC[C@H](N3CCN(c4cccc5[nH]ccc45)CC3)CC2)c2cc(C#N)ccc21 [Example 15b, 3-{(1,4-trans)-4-[4-(1H-indol-4-yl)-piperazin-1-yl]-cyclohexyl}-1-isopropyl-1H-indole-5-carbonitrile]
Serotonin transporter; concentration not given
  ST, value given as %: 16%

## N#Cc1ccc2c(c1)c([C@H]1CC[C@@H](N3CCN(c4cccc5[nH]ccc45)CC3)CC1)cn2Cc1ccccc1 [Example 16a, 1-Benzyl-3-{(1,4-cis)-4-[4-(1H-indol-4-yl)-piperazin-1-yl]-cyclohexyl}-1H-indole-5-carbonitrile]
[1]
  5-HT1A, value given as %: 0%
Serotonin transporter
  Ki: 29 nM

## N#Cc1ccc2c(c1)c([C@H]1CC[C@H](N3CCN(c4cccc5[nH]ccc45)CC3)CC1)cn2Cc1ccccc1 [Example 16b, 1-Benzyl-3-{(1,4-trans)-4-[4-(1H-indol-4-yl)-piperazin-1-yl]-cyclohexyl}-1H-indole-5-carbonitrile]
[1]; 100 nM
  5-HT1A, % @ 100 nM: 0% @
Serotonin transporter; 100 nM
  ST, % 100 nM: 25%

## Cn1ccc2c(N3CCN([C@H]4CC[C@@H](c5cn(C)c6ccc(C#N)cc65)CC4)CC3)cccc21 [Example 17, 1-Methyl-3-{(1,4-cis)-4-[4-(1-methyl-1H-indol-4-yl)-piperazin-1-yl]-cyclohexyl}-1H-indole-5-carbonitrile]
[1]
  5-HT1A, value given as %: 0%
Serotonin transporter
  Ki: 2.5 nM

## COc1ccccc1C1CCN([C@H]2CC[C@@H](c3c[nH]c4ccc(F)cc43)CC2)CC1 [Example 19a, 5-Fluoro-3-{(1,4-cis)-4-[4-(2-methoxy-phenyl)-piperidin-1-yl]-cyclohexyl}-1H-indole]
[1]
  Ki: 264 nM
Serotonin transporter
  Ki: 5.72 nM

## COc1ccc2[nH]cc([C@H]3CC[C@@H](N4CCN(c5ccccc5OC)CC4)CC3)c2c1 [Example 20a, 5-Methoxy-3-{(1,4-cis)-4-[4-(2-methoxy-phenyl)-piperazin-1-yl]-cyclohexyl}-1H-indole]
[1]
  Ki: 631 nM

## COc1ccccc1N1CCN([C@H]2CC[C@@H](c3c[nH]c4ncccc43)CC2)CC1 [Example 21, 3-{(1,4-cis)-4-[4-(2-Methoxy-phenyl)-piperazin-1-yl]-cyclohexyl}-1H-pyrrolo[2,3-b]pyridine]
[1]
  Ki: 110 nM

## Fc1cccc2[nH]cc([C@H]3CC[C@@H](N4CCN(c5cccc6c5OCCO6)CC4)CC3)c12 [Example 23a, 3-{(1,4-cis)-4-[4-(2,3-Dihydro-benzo[1,4]dioxin-5-yl)-piperazin-1-yl]-cyclohexyl}-4-fluoro-1H-indole]
[1]
  Ki: 103 nM

## Fc1cccc2[nH]cc([C@H]3CC[C@H](N4CCN(c5cccc6c5OCCO6)CC4)CC3)c12 [Example 23b, 3-{(1,4-trans)-4-[4-(2,3-Dihydro-benzo[1,4]dioxin-5-yl)-piperazin-1-yl]-cyclohexyl}-4-fluoro-1H-indole]
[1]
  Ki: 14.9 nM

## Fc1ccc2[nH]cc([C@H]3CC[C@H](N4CCN(c5cccc6c5OCCO6)CC4)CC3)c2c1 [Example 24b, 3-{(1,4-trans)-4-[4-(2,3-Dihydro-benzo[1,4]dioxin-5-yl)-piperazin-1-yl]-cyclohexyl}-5-fluoro-1H-indole]
[1]
  Ki: 11.3 nM
Serotonin transporter
  Ki: 36 nM

## Fc1ccc2[nH]cc([C@H]3CC[C@@H](N4CCN(c5cccc6cccnc56)CC4)CC3)c2c1 [Example 27a, 8-{4-[(1,4-cis)-4-(5-Fluoro-1H-indol-3-yl)-cyclohexyl]-piperazin-1-yl}-quinoline]
[1]
  Ki: 69.7 nM

## Fc1ccc2[nH]cc([C@H]3CC[C@H](N4CCN(c5cccc6cccnc56)CC4)CC3)c2c1 [Example 27b, 8-{4-[(1,4-trans)-4-(5-Fluoro-1H-indol-3-yl)-cyclohexyl]-piperazin-1-yl}-quinoline]
[1]
  Ki: 6.54 nM

## Cn1cc([C@H]2CC[C@@H](N3CCN(c4cccc5cccnc45)CC3)CC2)c2cc(F)ccc21 [Example 28, 8-{4-(1,4-cis)-4-[4-(5-Fluoro-1-methyl-1H-indol-3-yl)-cyclohexyl]-piperazin-1-yl}-quinoline]
[1]
  Ki: 25.1 nM
Serotonin transporter
  Ki: 2.02 nM

## Fc1cc2c(c(N3CCN([C@H]4CC[C@@H](c5c[nH]c6ccc(F)cc65)CC4)CC3)c1)OCCC2 [Example 31a, 5-Fluoro-3-{(1,4-cis)-4-[4-(6-fuoro-chroman-8-yl)-piperazin-1-yl]-cyclohexyl}-1H-indole]
[1]
  Ki: 142 nM
Serotonin transporter
  Ki: 13 nM

## Fc1cc2c(c(N3CCN([C@H]4CC[C@H](c5c[nH]c6ccc(F)cc65)CC4)CC3)c1)OCCC2 [Example 31b, 5-Fluoro-3-{(1,4-trans)-4-[4-(6-fluoro-chroman-8-yl)-piperazin-1-yl]-cyclohexyl}-1H-indole]
[1]
  Ki: 32.4 nM

## Fc1cc2c(c(N3CCN([C@H]4CC[C@@H](c5c[nH]c6ccc(F)cc65)CC4)CC3)c1)OCC2 [Example 32a, 5-Fluoro-3-{(1,4-cis)-4-[4-(5-fluoro-2,3-dihydro-benzofuran-7-yl)-piperazin-1-yl]-cyclohexyl}-1H-indole]
[1]
  Ki: 246 nM
Serotonin transporter
  Ki: 14 nM

## Fc1cc2c(c(N3CCN([C@H]4CC[C@H](c5c[nH]c6ccc(F)cc65)CC4)CC3)c1)OCC2 [Example 32b, 5-Fluoro-3-{(1,4-trans)-4-[4-(5-fluoro-2,3-dihydro-benzofuran-7-yl)-piperazin-1-yl]-cyclohexyl}-1H-indole]
[1]
  Ki: 49.1 nM

## N#Cc1ccc2[nH]cc([C@H]3CC[C@@H](N4CCN(c5cc(F)cc6c5OCC6)CC4)CC3)c2c1 [Example 33a, 3-{(1,4-cis)-4-[4-(5-Fluoro-2,3-dihydro-benzofuran-7-yl)-piperazin-1-yl]-cyclohexyl}-1H-indole-5-carbonitrile]
[1]
  Ki: 98.9 nM
Serotonin transporter
  Ki: 1.9 nM

## N#Cc1ccc2[nH]cc([C@H]3CC[C@H](N4CCN(c5cc(F)cc6c5OCC6)CC4)CC3)c2c1 [Example 33b, 3-{(1,4-trans)-4-[4-(5-Fluoro-2,3-dihydro-benzofuran-7-yl)-piperazin-1-yl]-cyclohexyl}-1H-indole-5-carbonitrile]
[1]
  Ki: 19.2 nM
Serotonin transporter
  Ki: 45 nM

From patent US6465482B2, “Arylpiperazinyl-cyclohexyl indole derivatives for the treatment of depression” (Wyeth, priority 1999, dated 2002)
